Experimental findings from DBAASP are described below.

Structures are written as SMILES. Values after ≈ are worked out from the molar mass of the structure shown.

Among the test systems are Escherichia coli AB94012; Escherichia coli ESBL; Klebsiella pneumoniae; Vibrio cholerae CUN 09; Enterococcus sp. S13; Pseudomonas putida; Bacillus cereus; Leuconostoc lactis; Listeria innocua; Streptococcus uberis.
Common to all, as to assay: ≥ marks a high value that may be exact or a test limit, other limits are often not marked, values filed in µg/mL are converted to µM
Experiment [1] deals with Bacillus subtilis AB91021.
Experiment [2] has as its system Bacillus thuringiensis AB92037.
Experiment [3] relates to Enterococcus faecalis P675.
The subject of experiment [4] is Micrococcus luteus AB93113.
Experiment [5] concerns Pseudomonas aeruginosa AB93066.
The test system of experiment [6] is Staphylococcus aureus AB94004.
For experiment [7], the system named is Staphylococcus aureus P1369.
The subject of experiment [8] is Staphylococcus aureus P1374.
Experiment [9] has as its system Staphylococcus aureus P1381.
The subject of experiment [10] is Staphylococcus aureus P1386.
The subject of experiment [11] is Staphylococcus aureus P838.
Experiment [12] has as its system Candida albicans ATCC 90028.
Experiment [13] relates to Enterobacter cloacae NHTCC 53001.
Experiment [14] relates to Escherichia coli ATCC 25922.
Experiment [15] has as its system Klebsiella pneumoniae KK3 9904.
Experiment [16] concerns Pseudomonas aeruginosa ATCC 27853.
Experiment [17] deals with Staphylococcus aureus NCTC 8325.
Experiment [18] has as its system Acinetobacter baumannii ATCC 19606.
Experiment [19] concerns Bordetella bronchiseptica CUN 11844-99.
For experiment [20], the system named is Pseudomonas aeruginosa CUN 4158-02.
Experiment [21] concerns Staphylococcus aureus ATCC 25923.
For experiment [22], the system named is Staphylococcus aureus ATCC 43300.
The test system of experiment [23] is Staphylococcus aureus CUN 3792-99.
Experiment [24] has as its system Stenotrophomonas maltophilia CUN 3998-00.
Experiment [25] has as its system Bacillus magaterium AB90008.
In experiment [26] the test system is Candida tropicalis AY91009.
For experiment [27], the system named is Enterobacter cloacae AB2010162.
Experiment [28] has as its system Escherichia coli DH5alpha.
Experiment [29] has as its system Klebsiella oxytoca AB2010143.
Experiment [30] concerns Micrococcus luteus AB2010179.
Experiment [31] relates to Salmonella enterica AB2010185.
The test system of experiment [32] is Staphylococcus aureus 16472.
The subject of experiment [33] is Enterococcus faecalis ATCC 29212.
Experiment [34] deals with Micrococcus luteus ATCC 9341.
Experiment [35] relates to Staphylococcus aureus ATCC 29213.
For experiment [36], the system named is Staphylococcus epidermidis ATCC 14990.

In the case of `CC(C)C[C@H](NC(=O)[C@H](CO)NC(=O)CNC(=O)[C@H](Cc1c[nH]c2ccccc12)NC(=O)[C@H](Cc1ccccc1)NC(=O)CN)C(=O)N[C@@H](Cc1c[nH]c2ccccc12)C(=O)N[C@@H](CCC(=O)O)C(=O)NCC(=O)N[C@H](C(=O)N[C@@H](CCCCN)C(=O)N[C@@H](CO)C(=O)N[C@H](C(=O)N[C@H](C(N)=O)C(C)C)C(C)C)C(C)C` [GFWGSLWEGVKSVV], the MIC (usually the least concentration at which growth counts as inhibited) was at least 64.5 µM in experiment [1]; at least 64.5 µM in [2]; at least 32.2 µM in experiment [3]; at least 64.5 µM in the experiment on Escherichia coli AB94012; at least 64.5 µM in [4]; at least 64.5 µM in experiment [5]. Also, the MIC in experiment [6] was 8.06 µM (≈ 12.5 µg/mL); in experiment [7], at least 80.6 µM; in [8] it was at least 129 µM; in experiment [9] it was at least 322 µM; in experiment [10], at least 161 µM; in [11] it was at least 32.2 µM.

For `CC[C@H](C)[C@@H]1NC(=O)[C@H](CCCCN)NC(=O)[C@@H](NC(=O)[C@H](CCCCN)NC(=O)[C@H](C)NC(=O)[C@H](CCC(N)=O)NC(=O)[C@H](CC(=O)O)NC(=O)[C@H](CC(C)C)NC(=O)[C@H](CC(C)C)NC(=O)[C@H](CO)NC(=O)CNC(=O)CNC(=O)[C@@H](NC(=O)[C@H](CC(N)=O)NC(=O)[C@H](CCCCN)NC(=O)[C@H](Cc2ccccc2)NC(=O)[C@@H](NC(=O)[C@H](Cc2cnc[nH]2)NC(=O)[C@H](CCCCN)NC(=O)CNC(=O)[C@@H](NC(=O)[C@@H](NC(=O)[C@H](CCCCN)NC(=O)[C@H](CC(C)C)NC(=O)[C@@H](NC(=O)CNC(=O)[C@H](CCCCN)NC(=O)[C@H](CC(C)C)NC(=O)[C@@H](NC(=O)[C@H](CO)NC(=O)[C@H](CC(C)C)NC(=O)[C@H](CC(C)C)NC(=O)CN)C(C)C)C(C)C)[C@@H](C)O)[C@@H](C)O)[C@@H](C)CC)C(C)C)CSSC[C@@H](C(=O)O)NC(=O)[C@H](CCC(N)=O)NC(=O)CNC(=O)[C@H](CO)NC1=O` [GLLSVLKGVLKTTGKHIFKNVGGSLLDQAKCKISGQC], the MIC is at least 100 µM in [12]; 3 µM (≈ 11.5 µg/mL) in experiment [13]; 3 µM (≈ 11.5 µg/mL) in [14]; 6 µM (≈ 23 µg/mL) in [15]; 3 µM (≈ 11.5 µg/mL) in experiment [16]; 25 µM (≈ 96 µg/mL) in experiment [17].

On to `N=C(N)NCCC[C@H](NC(=O)CNC(=O)[C@H](CCCCN)NC(=O)[C@H](Cc1ccccc1)NC(=O)[C@H](CCCCN)NC(=O)[C@H](Cc1c[nH]c2ccccc12)NC(=O)[C@H](CCCNC(=N)N)NC(=O)[C@H](Cc1ccccc1)NC(=O)[C@H](CCCCN)NC(=O)[C@H](CCCCN)NC(=O)[C@H](Cc1ccc(O)cc1)NC(=O)[C@H](CCCNC(=N)N)NC(=O)[C@H](CCCNC(=N)N)NC(=O)CN)C(=O)N[C@@H](Cc1c[nH]c2ccccc12)C(=O)N[C@@H](Cc1ccccc1)C(=O)N[C@@H](Cc1c[nH]c2ccccc12)C(=O)N[C@@H](Cc1ccccc1)C(=O)NCC(=O)O` [GRRYKKFRWKFKGRWFWFG], for which the MIC in experiment [18] is 6.07 µM (≈ 16 µg/mL); in [19], at least 48.5 µM; in experiment [14] it was 6.07 µM (≈ 16 µg/mL); against Escherichia coli ESBL, 6.07 µM (≈ 16 µg/mL); with Klebsiella pneumoniae it was 12.1 µM (≈ 32 µg/mL); in experiment [16] it was 6.07 µM (≈ 16 µg/mL). Besides, the MIC was found to be 12.1 µM (≈ 32 µg/mL) in [20]; 3.03 µM (≈ 8 µg/mL) in experiment [21]; 3.03 µM (≈ 8 µg/mL) in experiment [22]; 3.03 µM (≈ 8 µg/mL) in experiment [23]; 12.1 µM (≈ 32 µg/mL) in [24]; 6.07 µM (≈ 16 µg/mL) in the experiment with Vibrio cholerae CUN 09.

For `CC[C@H](C)[C@H](N)C(=O)N[C@@H](Cc1ccccc1)C(=O)NCC(=O)N[C@@H](C)C(=O)N[C@H](C(=O)N[C@@H](Cc1c[nH]c2ccccc12)C(=O)N[C@@H](CCCCN)C(=O)NCC(=O)N[C@H](C(=O)N[C@@H](CO)C(=O)N[C@@H](CO)C(=O)N[C@@H](CC(C)C)C(=O)N[C@@H](CC(C)C)C(=O)O)[C@@H](C)CC)[C@@H](C)CC` [IFGAIWKGISSLL], the MIC was at least 36 µM in experiment [25]; 16 µM (≈ 22.5 µg/mL) in experiment [26]; at least 87 µM in [27]; at least 36 µM with Enterococcus sp. S13; at least 48 µM in [28]; at least 87 µM in experiment [29]. Further, the MIC was 18 µM (≈ 25.3 µg/mL) in experiment [30]; at least 87 µM with Pseudomonas putida; at least 68 µM in experiment [31]; 28 µM (≈ 39.3 µg/mL) in experiment [32]; at least 48 µM in experiment [6].

`CC[C@H](C)[C@H](N)C(=O)N[C@H](C(=O)NCC(=O)N[C@@H](Cc1cnc[nH]1)C(=O)N[C@@H](CC(C)C)C(=O)N[C@H](C(=O)N[C@@H](CCCCN)C(=O)N[C@H](C(=O)N[C@@H](C)C(=O)N[C@@H](CC(C)C)C(=O)NCC(=O)N[C@@H](CCSC)C(=O)N[C@@H](CC(C)C)C(=O)NCC(=O)N[C@@H](CC(C)C)C(N)=O)[C@@H](C)O)[C@@H](C)CC)[C@@H](C)CC` [IIGHLIKTALGMLGL]: the minimal inhibitory concentration (MIC) against Bacillus cereus is 25 µM (≈ 38.7 µg/mL); in experiment [33] it was 100 µM (≈ 155 µg/mL); against Leuconostoc lactis, 12 µM (≈ 18.6 µg/mL); against Listeria innocua, at least 50 µM; in [34], 25 µM (≈ 38.7 µg/mL); in experiment [35], 12 µM (≈ 18.6 µg/mL). Also, the MIC (in [36]; against Streptococcus uberis) was 25 µM (≈ 38.7 µg/mL) throughout.
